In patent US8574831B2, “Mutational profiles in HIV-1 reverse transcriptase correlated with phenotypic drug resistance” (Virco N.V., priority 2000, dated 2013):

System: HIV with mutations in the HIV protease sequence
Assay: Phenotypic fold resistance to protease inhibitors, protease mutations 84A/84L/84C/54M/54L/54V in a background (Examples 8-13)
Assay type: cell-based, HIV-1
Method in brief: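 Recombinant-virus phenotyping: patient-derived PR/RT sequences amplified by PCR and recombined in CD4+ T cells into an HXB2 proviral clone deleted for those sequences. Chimeric viruses grown across drug concentrations; IC50 determined, and fold-resistance expressed as IC50 ratio versus wild-type susceptible laboratory HIV-1 tested in parallel.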

## CC(C)c1nc(CN(C)C(=O)N[C@H](C(=O)N[C@@H](Cc2ccccc2)C[C@H](O)[C@H](Cc2ccccc2)NC(=O)OCc2cncs2)C(C)C)cs1 [Ritonavir, ritonavir]
Table 12, V055199, genotype 10I + 33F + 54M + 90M
  Fold change in IC50: 18.4 fold
Table 13, V19263, genotype 77I
  Fold change in IC50: 0.4 fold
Table 13, V20160, genotype WT
  Fold change in IC50: 0.6 fold
Table 13, V021667, genotype 10I
  Fold change in IC50: 1.2 fold
Table 13, V030496, genotype 10I + 77I
  Fold change in IC50: 0.5 fold
Table 13, V048868, genotype 10I + 54L + 71V + 77I + 90M
  Fold change in IC50: 9.7 fold
Table 13, V048874, genotype 10I + 33F + 54L + 71V + 77I + 90M
  Fold change in IC50: 21.3 fold
Table 13, V048875, genotype 10I + 33F + 54L + 71V + 77I + 90M
  Fold change in IC50: 25.1 fold
Table 13, V048877, genotype 10I + 33F + 77I + 90M
  Fold change in IC50: 20.5 fold
Table 13, V048880, genotype 10I + 33F + 77I + 90M
  Fold change in IC50: 3.6 fold
Table 13, V052940, genotype 71V
  Fold change in IC50: 0.4 fold
Table 13, V052942, genotype 10I + 71V
  Fold change in IC50: 0.6 fold
Table 13, V052943, genotype 10I + 90M
  Fold change in IC50: 1.8 fold
Table 13, V052944, genotype 10I + 90M
  Fold change in IC50: 1.5 fold
Table 13, V052945, genotype 77I + 90M
  Fold change in IC50: 1.9 fold
Table 13, V052946, genotype 71V + 90M
  Fold change in IC50: 2.0 fold
Table 13, V052947, genotype 10I + 77I + 90M
  Fold change in IC50: 6.9 fold
Table 13, V052948, genotype 10I + 71V + 90M
  Fold change in IC50: 10.5 fold
Table 13, V052949, genotype 10I + 71V + 77I + 90M
  Fold change in IC50: 2.3 fold
Table 13, V052950, genotype 33F
  Fold change in IC50: 1.5 fold
Table 13, V052951, genotype 33F + 77I
  Fold change in IC50: 0.3 fold
Table 13, V052953, genotype 10I + 33F + 77I
  Fold change in IC50: 1.1 fold
Table 13, V052954, genotype 33F + 77I + 90M
  Fold change in IC50: 2.2 fold
Table 13, V052955, genotype 33F + 71V + 90M
  Fold change in IC50: 77.9 fold
Table 13, V052968, genotype 10L/I + 33F/L + 54L + 77I
  Fold change in IC50: 4.7 fold
Table 13, V052969, genotype 10I + 33F + 54L + 90M
  Fold change in IC50: 4.8 fold
Table 13, V052970, genotype 54L
  Fold change in IC50: 2.0 fold
Table 13, V052971, genotype 10I + 54L
  Fold change in IC50: 1.5 fold
Table 13, V052972, genotype 54L + 77I
  Fold change in IC50: 2.4 fold
Table 13, V052973, genotype 10I + 54L + 77I
  Fold change in IC50: 1.4 fold
Table 13, V052974, genotype 10I + 54L + 90M
  Fold change in IC50: 3.6 fold
Table 13, V052975, genotype 10I + 54L + 71V + 90M
  Fold change in IC50: 30.5 fold
Table 13, V052976, genotype 10I + 54L + 71V + 77I + 90M
  Fold change in IC50: 6.5 fold
Table 13, V053832, genotype 10I + 33F
  Fold change in IC50: 2.9 fold
Table 13, V053854, genotype 54L + 71V
  Fold change in IC50: 2.3 fold
Virco ID 214846, genotype 10I + 33F + 54V + 71V + 77I + 90M, vs mean IC50 of wild type laboratory HIV strain
  Fold change in IC50: 57.6 fold
Virco ID V021667, genotype 10I, vs mean IC50 of wild type laboratory HIV strain
  Fold change in IC50: 1.2 fold
Virco ID V030496, genotype 10I + 77I, vs mean IC50 of wild type laboratory HIV strain
  Fold change in IC50: 0.5 fold
Virco ID V048876, genotype 33F + 54V + 77I + 90M, vs mean IC50 of wild type laboratory HIV strain
  Fold change in IC50: 5.6 fold
Virco ID V048877, genotype 10I + 33F + 77I + 90M, vs mean IC50 of wild type laboratory HIV strain
  Fold change in IC50: 20.5 fold
Virco ID V048880, genotype 10I + 33F + 77I + 90M, vs mean IC50 of wild type laboratory HIV strain
  Fold change in IC50: 3.6 fold
Virco ID V052940, genotype 71V, vs mean IC50 of wild type laboratory HIV strain
  Fold change in IC50: 0.4 fold
Virco ID V052942, genotype 10I + 71V, vs mean IC50 of wild type laboratory HIV strain
  Fold change in IC50: 0.6 fold
Virco ID V052943, genotype 10I + 90M, vs mean IC50 of wild type laboratory HIV strain
  Fold change in IC50: 1.8 fold
Virco ID V052944, genotype 10I + 90M, vs mean IC50 of wild type laboratory HIV strain
  Fold change in IC50: 1.5 fold
Virco ID V052946, genotype 71V + 90M, vs mean IC50 of wild type laboratory HIV strain
  Fold change in IC50: 2.0 fold
Virco ID V052947, genotype 10I + 77I + 90M, vs mean IC50 of wild type laboratory HIV strain
  Fold change in IC50: 6.9 fold
Virco ID V052948, genotype 10I + 71V + 90M, vs mean IC50 of wild type laboratory HIV strain
  Fold change in IC50: 10.5 fold
Virco ID V052949, genotype 10I + 71V + 77I + 90M, vs mean IC50 of wild type laboratory HIV strain
  Fold change in IC50: 2.3 fold
Virco ID V052950, genotype 33F, vs mean IC50 of wild type laboratory HIV strain
  Fold change in IC50: 1.5 fold
Virco ID V052951, genotype 33F + 77I, vs mean IC50 of wild type laboratory HIV strain
  Fold change in IC50: 0.3 fold
Virco ID V052953, genotype 10I + 33F + 77I, vs mean IC50 of wild type laboratory HIV strain
  Fold change in IC50: 1.1 fold
Virco ID V052954, genotype 33F + 77I + 90M, vs mean IC50 of wild type laboratory HIV strain
  Fold change in IC50: 2.2 fold
Virco ID V052955, genotype 33F + 71V + 90M, vs mean IC50 of wild type laboratory HIV strain
  Fold change in IC50: 77.9 fold
Virco ID V052957, genotype 10I + 33F + 54V + 90M, vs mean IC50 of wild type laboratory HIV strain
  Fold change in IC50: 13.9 fold
Virco ID V052958, genotype 10I + 33F + 54V + 77I + 90M, vs mean IC50 of wild type laboratory HIV strain
  Fold change in IC50: 16.6 fold
Virco ID V052959, genotype 10I + 33F + 54V + 77I + 90M, vs mean IC50 of wild type laboratory HIV strain
  Fold change in IC50: 28.5 fold
Virco ID V052960, genotype 10I + 33F + 54V + 71V + 90M, vs mean IC50 of wild type laboratory HIV strain
  Fold change in IC50: 70.9 fold
Virco ID V052961, genotype 54V, vs mean IC50 of wild type laboratory HIV strain
  Fold change in IC50: 1.2 fold
Virco ID V052962, genotype 10I + 54V, vs mean IC50 of wild type laboratory HIV strain
  Fold change in IC50: 1.0 fold
Virco ID V052963, genotype 54V + 77I + 90M, vs mean IC50 of wild type laboratory HIV strain
  Fold change in IC50: 2.0 fold
Virco ID V052964, genotype 54V + 71V + 90M, vs mean IC50 of wild type laboratory HIV strain
  Fold change in IC50: 7.1 fold
Virco ID V052965, genotype 10I + 54V + 77I + 90M, vs mean IC50 of wild type laboratory HIV strain
  Fold change in IC50: 12.5 fold
Virco ID V052966, genotype 10I + 54V + 71V + 90M, vs mean IC50 of wild type laboratory HIV strain
  Fold change in IC50: 44.5 fold
Virco ID V052967, genotype 10I + 54V + 71V + 77I + 90M, vs mean IC50 of wild type laboratory HIV strain
  Fold change in IC50: 0.7 fold
Virco ID V053358, genotype 33F + 54V + 77I + 90M, vs mean IC50 of wild type laboratory HIV strain
  Fold change in IC50: 4.9 fold
Virco ID V053831, genotype 33F + 54V, vs mean IC50 of wild type laboratory HIV strain
  Fold change in IC50: 129.7 fold
Virco ID V053832, genotype 10I + 33F, vs mean IC50 of wild type laboratory HIV strain
  Fold change in IC50: 2.9 fold
